According to patent publication US9642831B2, “Substituted chromanes and method of use” (AbbVie S.á.r.l., priority 2014, dated 2017):

Target: F508delCFTR (Homo sapiens, UniProt P13569, DEL508-508)
Assay: Cell Surface Expression-Horse Radish Peroxidase (CSE-HRP) assay
Format: cell-based
Parameters: expressed in transfected cells; host or cells: CFBE41o- human lung derived epithelial cell line, doxycycline-inducible
Conditions: CFBE4lo-F508delCFTR-HRP cells; for EC50: 18-24 hours at 33° C., 8-point curve, highest concentration 20 μM, luminescence readout; for Emax: maximum % activity at any tested concentration, normalized to on-plate positive control (3 μM Example 1)
Method in brief: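 Following 18-24 h compound exposure at 33° C. Expression was doxycycline-induced beforehand. % activity versus DMSO and a 3 μM corrector control gave maximum activity and EC50 from a variable-Hill sigmoidal fit.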

Chain of F508delCFTR (P13569 with tags, fused parts or gaps DEL508-508): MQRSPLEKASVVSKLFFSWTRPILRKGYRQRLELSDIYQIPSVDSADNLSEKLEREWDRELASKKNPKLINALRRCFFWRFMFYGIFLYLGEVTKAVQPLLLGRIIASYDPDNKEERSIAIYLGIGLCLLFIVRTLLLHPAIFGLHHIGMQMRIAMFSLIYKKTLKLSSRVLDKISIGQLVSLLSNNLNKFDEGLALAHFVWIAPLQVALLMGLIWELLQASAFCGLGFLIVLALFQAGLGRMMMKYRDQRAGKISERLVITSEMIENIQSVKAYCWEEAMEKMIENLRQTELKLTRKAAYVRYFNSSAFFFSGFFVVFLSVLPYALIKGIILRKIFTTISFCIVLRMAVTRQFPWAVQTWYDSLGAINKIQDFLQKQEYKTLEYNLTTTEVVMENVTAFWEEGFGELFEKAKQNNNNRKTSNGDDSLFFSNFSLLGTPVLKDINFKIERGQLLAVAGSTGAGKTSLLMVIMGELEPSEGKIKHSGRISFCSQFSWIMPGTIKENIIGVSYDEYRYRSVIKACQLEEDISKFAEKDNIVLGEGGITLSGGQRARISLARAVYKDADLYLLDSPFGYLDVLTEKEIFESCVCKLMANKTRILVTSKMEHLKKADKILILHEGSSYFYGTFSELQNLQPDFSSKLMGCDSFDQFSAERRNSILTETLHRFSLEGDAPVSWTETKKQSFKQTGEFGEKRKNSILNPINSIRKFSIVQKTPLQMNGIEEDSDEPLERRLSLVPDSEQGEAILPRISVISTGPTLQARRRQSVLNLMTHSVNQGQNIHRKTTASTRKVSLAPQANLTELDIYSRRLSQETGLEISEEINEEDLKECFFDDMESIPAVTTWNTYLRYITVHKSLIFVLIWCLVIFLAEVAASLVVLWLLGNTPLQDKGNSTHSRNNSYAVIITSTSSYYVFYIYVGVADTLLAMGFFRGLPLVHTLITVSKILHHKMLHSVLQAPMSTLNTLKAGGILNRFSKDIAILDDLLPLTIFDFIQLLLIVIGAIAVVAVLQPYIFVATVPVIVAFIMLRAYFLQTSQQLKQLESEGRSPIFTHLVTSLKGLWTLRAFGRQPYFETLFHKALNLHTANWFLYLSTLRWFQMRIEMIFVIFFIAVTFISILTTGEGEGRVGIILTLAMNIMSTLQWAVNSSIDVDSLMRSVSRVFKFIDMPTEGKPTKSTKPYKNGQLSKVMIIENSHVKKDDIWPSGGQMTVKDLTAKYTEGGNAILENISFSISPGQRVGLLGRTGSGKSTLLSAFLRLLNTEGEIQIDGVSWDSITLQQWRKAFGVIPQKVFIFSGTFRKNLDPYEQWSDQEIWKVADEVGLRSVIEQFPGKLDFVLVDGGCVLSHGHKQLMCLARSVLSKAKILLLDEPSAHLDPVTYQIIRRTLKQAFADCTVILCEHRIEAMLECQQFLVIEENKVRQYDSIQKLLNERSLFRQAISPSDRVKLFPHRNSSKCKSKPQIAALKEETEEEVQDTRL

SMILES	EC50 [nM]	Emax [%]
O=C(O)c1cccc([C@H]2C[C@H](NC(=O)C3(c4ccc5c(c4)OC(F)(F)O5)CC3)c3cccnc3O2)c1 (racemic) [Example 32, rac-3-[(2R,4S)-4-({[1-(2,2-difluoro-1,3-benzodioxol-5-yl)cyclopropyl]carbonyl}amino)-3,4-dihydro-2H-pyrano[2,3-b]pyridin-2-yl]benzoic acid]	≥ 20000	16
COc1ccc2c(c1)OCCC2NC(=O)C1(c2ccc3c(c2)OC(F)(F)O3)CC1 (stereo not drawn) [Example 59, 1-(2,2-difluoro-1,3-benzodioxol-5-yl)-N-(7-methoxy-3,4-dihydro-2H-chromen-4-yl)cyclopropanecarboxamide]	3660	101
C[C@@]1(CF)C[C@@H](NC(=O)C2(c3ccc4c(c3)OC(F)(F)O4)CC2)c2ccc(C(F)(F)F)cc2O1 [Example 80, 1-(2,2-difluoro-1,3-benzodioxol-5-yl)-N-[(2S,4R)-2-(fluoromethyl)-2-methyl-7-(trifluoromethyl)-3,4-dihydro-2H-chromen-4-yl]cyclopropanecarboxamide]	1550	114
COC(=O)c1cccc([C@H]2C[C@@H](NC(=O)C3(c4ccc5c(c4)OC(F)(F)O5)CC3)c3ccc(OC)nc3O2)c1 (racemic) [Example 30, methyl rac-3-[(2R,4R)-4-({[1-(2,2-difluoro-1,3-benzodioxol-5-yl)cyclopropyl]carbonyl}amino)-7-methoxy-3,4-dihydro-2H-pyrano[2,3-b]pyridin-2-yl]benzoate]	1880	78
COC(=O)c1cccc([C@H]2C[C@H](NC(=O)C3(c4ccc5c(c4)OC(F)(F)O5)CC3)c3ccc(C)cc3O2)c1 [Example 17, methyl 3-[(2R,4S)-4-({[1-(2,2-difluoro-1,3-benzodioxol-5-yl)cyclopropyl]carbonyl}amino)-7-methyl-3,4-dihydro-2H-chromen-2-yl]benzoate]	2640	78
O=C(O)c1cccc([C@H]2C[C@@H](NC(=O)C3(c4ccc5c(c4)OC(F)(F)O5)CC3)c3ccc(O)cc3O2)c1 [Example 23, 3-[(2R,4R)-4-({[1-(2,2-difluoro-1,3-benzodioxol-5-yl)cyclopropyl]carbonyl}amino)-7-hydroxy-3,4-dihydro-2H-chromen-2-yl]benzoic acid]	≥ 20000	12
COc1ccc2c(c1)C(NC(=O)C1(c3ccc4c(c3)OC(F)(F)O4)CC1)C(Cc1ccc(OC)c(OC)c1)CO2 (stereo not drawn) [Example 72, 1-(2,2-difluoro-1,3-benzodioxol-5-yl)-N-[3-(3,4-dimethoxybenzyl)-6-methoxy-3,4-dihydro-2H-chromen-4-yl]cyclopropanecarboxamide]	2500	71
Cc1ccc2c(c1)O[C@@H](c1cccc(C(=O)NCC3(O)CCC3)c1)C[C@H]2NC(=O)C1(c2ccc3c(c2)OC(F)(F)O3)CC1 [Example 54, 3-[(2R,4R)-4-({[1-(2,2-difluoro-1,3-benzodioxol-5-yl)cyclopropyl]carbonyl}amino)-7-methyl-3,4-dihydro-2H-chromen-2-yl]-N-[(1-hydroxycyclobutyl)methyl]benzamide]	860	92
COc1ccc2c(c1)O[C@@H](C1CC1)C[C@H]2NC(=O)C1(c2ccc3c(c2)OC(F)(F)O3)CC1 (racemic) [Example 40, rac-N-[(2R,4R)-2-cyclopropyl-7-methoxy-3,4-dihydro-2H-chromen-4-yl]-1-(2,2-difluoro-1,3-benzodioxol-5-yl)cyclopropanecarboxamide]	2680	107
Cc1ccc2c(c1)O[C@@H](c1cccc(C(=O)O)c1)C[C@H]2NC(=O)C1(c2ccc3c(c2)OC(F)(F)O3)CC1 [Example 16, 3-[(2R,4R)-4-({[1-(2,2-difluoro-1,3-benzodioxol-5-yl)cyclopropyl]carbonyl}amino)-7-methyl-3,4-dihydro-2H-chromen-2-yl]benzoic acid]	370	108

Further lines, results first:

EC50 [nM]	Emax [%]	SMILES
4650	43	COc1ccc2c(c1)O[C@@H](C(=O)NCC(C)(C)O)C[C@@H]2NC(=O)C1(c2ccc3c(c2)OC(F)(F)O3)CC1 (racemic) [Example 188, rac-(2R,4S)-4-({[1-(2,2-difluoro-1,3-benzodioxol-5-yl)cyclopropyl]carbonyl}amino)-N-(2-hydroxy-2-methylpropyl)-7-methoxy-3,4-dihydro-2H-chromene-2-carboxamide]
740	64	COc1ccc2c(c1)O[C@@H](C(=O)NC(CO)c1ccccc1OC)C[C@H]2NC(=O)C1(c2ccc3c(c2)OC(F)(F)O3)CC1 (mixture of isomers) [Example 178, rac-(2R,4R)-4-({[1-(2,2-difluoro-1,3-benzodioxol-5-yl)cyclopropyl]carbonyl}amino)-N-[2-hydroxy-1-(2-methoxyphenyl)ethyl]-7-methoxy-3,4-dihydro-2H-chromene-2-carboxamide]
3080	40	O=C(OCc1ccccc1)N1CC2(CC(NC(=O)C3(c4ccc5c(c4)OC(F)(F)O5)CC3)c3ccc(F)cc3O2)C1 (stereo not drawn) [Example 100, benzyl 4′-({[1-(2,2-difluoro-1,3-benzodioxol-5-yl)cyclopropyl]carbonyl}amino)-7′-fluoro-3′,4′-dihydro-1H-spiro[azetidine-3,2′-chromene]-1-carboxylate]
2560	79	CCOC(=O)[C@H]1C[C@H](NC(=O)C2(c3ccc4c(c3)OC(F)(F)O4)CC2)c2ccc(OC)cc2O1 (racemic) [Example 130, Ethyl rac-(2R,4S)-4-({[1-(2,2-difluoro-1,3-benzodioxol-5-yl)cyclopropyl]carbonyl}amino)-7-methoxy-3,4-dihydro-2H-chromene-2-carboxylate]
1530	85	CCOC(=O)c1ccc([C@H]2C[C@H](NC(=O)C3(c4ccc5c(c4)OC(F)(F)O5)CC3)c3ccccc3O2)nc1 (racemic) [Example 149, ethyl rac-6-[(2R,4S)-4-({[1-(2,2-difluoro-1,3-benzodioxol-5-yl)cyclopropyl]carbonyl}amino)-3,4-dihydro-2H-chromen-2-yl]pyridine-3-carboxylate]
6010	82	COc1ccc2c(c1)OC(C1CN(S(C)(=O)=O)C1)CC2NC(=O)C1(c2ccc3c(c2)OC(F)(F)O3)CC1 (mixture of isomers) [Example 117, 1-(2,2-difluoro-1,3-benzodioxol-5-yl)-N-{7-methoxy-2-[1-(methylsulfonyl)azetidin-3-yl]-3,4-dihydro-2H-chromen-4-yl}cyclopropanecarboxamide]
3600	70	COC(=O)[C@H]1C[C@H](NC(=O)C2(c3ccc4c(c3)OC(F)(F)O4)CC2)c2ccc(OC)cc2O1 (racemic) [Example 131, methyl rac-(2R,4S)-4-({[1-(2,2-difluoro-1,3-benzodioxol-5-yl)cyclopropyl]carbonyl}amino)-7-methoxy-3,4-dihydro-2H-chromene-2-carboxylate]
2810	65	COC(=O)c1ccc([C@H]2C[C@@H](NC(=O)C3(c4ccc5c(c4)OC(F)(F)O5)CC3)c3ccc(O)cc3O2)cc1 [Example 127, methyl 4-[(2R,4R)-4-({[1-(2,2-difluoro-1,3-benzodioxol-5-yl)cyclopropyl]carbonyl}amino)-7-hydroxy-3,4-dihydro-2H-chromen-2-yl]benzoate]
6200	44	COc1ccc2c(c1)OC1(CC(C(=O)O)C1)CC2NC(=O)C1(c2ccc3c(c2)OC(F)(F)O3)CC1 (stereo not drawn) [Example 129, 4-({[1-(2,2-difluoro-1,3-benzodioxol-5-yl)cyclopropyl]carbonyl}amino)-7-methoxy-3,4-dihydrospiro[chromene-2,1′-cyclobutane]-3′-carboxylic acid]
6650	60	CS(=O)(=O)N1CCC2(CC1)CC(NC(=O)C1(c3ccc4c(c3)OC(F)(F)O4)CC1)c1ccc(F)cc1O2 (stereo not drawn) [Example 101, 1-(2,2-difluoro-1,3-benzodioxol-5-yl)-N-[7-fluoro-1′-(methylsulfonyl)-3,4-dihydrospiro[chromene-2,4′-piperidin]-4-yl]cyclopropanecarboxamide]
920	98	COC(=O)c1cccc([C@H]2C[C@@H](NC(=O)C3(c4ccc5c(c4)OC(F)(F)O5)CC3)c3ccc(OCc4ccccc4)cc3O2)c1 [Example 95, methyl 3-[(2R,4R)-7-(benzyloxy)-4-({[1-(2,2-difluoro-1,3-benzodioxol-5-yl)cyclopropyl]carbonyl}amino)-3,4-dihydro-2H-chromen-2-yl]benzoate]
3590	42	CCOC(=O)[C@H]1C[C@@H](NC(=O)C2(c3ccc4c(c3)OC(F)(F)O4)CC2)c2ccc(OC)cc2O1 (racemic) [Example 163, ethyl rac-(2R,4R)-4-({[1-(2,2-difluoro-1,3-benzodioxol-5-yl)cyclopropyl]carbonyl}amino)-7-methoxy-3,4-dihydro-2H-chromene-2-carboxylate]
7530	37	COc1ccc2c(c1)O[C@@H](C(=O)N(C)C1COC1)C[C@@H]2NC(=O)C1(c2ccc3c(c2)OC(F)(F)O3)CC1 (racemic) [Example 195, rac-(2R,4S)-4-({[1-(2,2-difluoro-1,3-benzodioxol-5-yl)cyclopropyl]carbonyl}amino)-7-methoxy-N-methyl-N-(oxetan-3-yl)-3,4-dihydro-2H-chromene-2-carboxamide]
310	88	O=C(O)c1cccc([C@H]2C[C@@H](NC(=O)C3(c4ccc5c(c4)OC(F)(F)O5)CC3)c3ccc(OCCF)cc3O2)c1 [Example 106, 3-[(2R,4R)-4-({[1-(2,2-difluoro-1,3-benzodioxol-5-yl)cyclopropyl]carbonyl}amino)-7-(2-fluoroethoxy)-3,4-dihydro-2H-chromen-2-yl]benzoic acid]
